The values that follow are results of earlier work, collected in patent US9089619B2, “Hybrid nanocrystals for treatment and bioimaging of disease” (University of Kentucky, priority 2005, dated 2015).

Each structure is given as a SMILES string.

For this data set the following is noted: water at 25° C.

Take `Nc1nc2ncc(CNc3ccc(C(=O)N[C@@H](CCC(=O)O)C(=O)O)cc3)nc2c(=O)[nH]1` [Folic acid]: the solubility in water result is “about 1.6 μg/ml”.
